Measurements from ChEMBL document CHEMBL1124638, “2,4-Diamino-5-benzylpyrimidines and analogues as antibacterial agents. 10. 2,4-Diamino-5-(6-quinolylmethyl)- and -[(tetrahydro-6-quinolyl)methyl]pyrimidine derivatives. Further specificity studies” (J Med Chem, 1989).
In brackets after ≈: the same amount, converted by molar mass.

Key:
[1] = tested on: Bordetella bronchiseptica; experiment: Comparative in vitro antibacterial activity with trimethoprim against Bordetella bronchiseptica CN385; assay type: functional
Citrobacter freundii = experiment: Comparative in vitro antibacterial activity with trimethoprim against Citrobacter freundii 2200/77; assay type: functional
Dihydrofolate reductase = target: T1, Dihydrofolate reductase (Rattus norvegicus, UniProt Q920D2); experiment: Inhibitory activity against dihydrofolate reductase in rat liver; settings: read-out: I50
T1 sequence (Q920D2 whole entry): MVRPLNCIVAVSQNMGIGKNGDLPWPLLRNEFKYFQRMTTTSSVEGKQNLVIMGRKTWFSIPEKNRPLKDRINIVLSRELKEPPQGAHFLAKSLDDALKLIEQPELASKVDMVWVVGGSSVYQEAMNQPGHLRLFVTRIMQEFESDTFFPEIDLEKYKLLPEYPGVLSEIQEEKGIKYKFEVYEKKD

Escherichia coli = experiment: Comparative in vitro antibacterial activity with trimethoprim against Escherichia coli CN314; assay type: functional
Klebsiella aerogenes = experiment: Comparative in vitro antibacterial activity with trimethoprim against Enterobacter aerogenes 2200/86; assay type: functional
[2] = tested on: Mycolicibacterium smegmatis; experiment: Comparative in vitro antibacterial activity with trimethoprim against Mycobacterium smegmatis S 3254; assay type: functional
Proteus mirabilis = experiment: Comparative in vitro antibacterial activity with trimethoprim against Proteus mirabilis S2409; assay type: functional
Proteus vulgaris = experiment: Comparative in vitro antibacterial activity with trimethoprim against Proteus vulgaris CN329; assay type: functional
[3] = Comparative in vitro antibacterial activity with trimethoprim against Salmonella typhi CN512; assay type: functional, salmonella typhosa
Shigella flexneri = experiment: Comparative in vitro antibacterial activity with trimethoprim against Shigella flexneri CN6007; assay type: functional
Serratia marcescens = experiment: Comparative in vitro antibacterial activity with trimethoprim against Serratia marcescens CN2398; assay type: functional
Salmonella typhimurium = experiment: Comparative in vitro antibacterial activity with trimethoprim against Salmonella Typhimurium S 8587; assay type: functional, Salmonella enterica subsp. enterica serovar Typhimurium; settings: Salmonella enterica
Streptococcus pyogenes = experiment: Comparative in vitro antibacterial activity of compound with trimethoprim against Streptococcus pyogenes CN10; assay type: functional
Staphylococcus aureus = experiment: Comparative in vitro antibacterial activity with trimethoprim against Staphylococcus aureus CN491; assay type: functional
Enterococcus faecalis = experiment: Comparative in vitro antibacterial activity with trimethoprim against Streptococcus faecalis CN478; assay type: functional
Streptococcus agalactiae = experiment: Comparative in vitro antibacterial activity with trimethoprim against Streptococcus agalactiae CN1143; assay type: functional
Vibrio cholerae = experiment: Comparative in vitro antibacterial activity with trimethoprim against Vibrio cholerae ATCC 14035; assay type: functional
Pasteurella multocida = experiment: Comparative in vitro antibacterial activity with trimethoprim against Pasteurella multocida ATCC 6587; assay type: functional
Klebsiella pneumoniae = experiment: Comparative in vitro antibacterial activity with trimethoprim against Klebsiella pneumoniae CN3632; assay type: functional

| Structure (SMILES) | MIC [1] | MIC (Citrobacter freundii) | IC50 (Dihydrofolate reductase) | MIC (Escherichia coli) | MIC (Klebsiella aerogenes) | MIC [2] | MIC (Proteus mirabilis) | MIC (Proteus vulgaris) | MIC [3] | MIC (Shigella flexneri) | MIC (Serratia marcescens) | MIC (Salmonella typhimurium) | MIC (Streptococcus pyogenes) | MIC (Staphylococcus aureus) | MIC (Enterococcus faecalis) | MIC (Streptococcus agalactiae) | MIC (Vibrio cholerae) | MIC (Pasteurella multocida) | MIC (Klebsiella pneumoniae) |
| --- | --- | --- | --- | --- | --- | --- | --- | --- | --- | --- | --- | --- | --- | --- | --- | --- | --- | --- | --- |
| COc1cc(Cc2cnc(N)nc2N)cc2cccnc12 | 30 µg/mL (≈ 107 µM) | 10 µg/mL (≈ 35.5 µM) | 12 µM | 3 µg/mL (≈ 10.7 µM) | 3 µg/mL (≈ 10.7 µM) | 1 µg/mL (≈ 3.55 µM) | 3 µg/mL (≈ 10.7 µM) | 3 µg/mL (≈ 10.7 µM) | 3 µg/mL (≈ 10.7 µM) | 3 µg/mL (≈ 10.7 µM) | 1 µg/mL (≈ 3.55 µM) | 3 µg/mL (≈ 10.7 µM) | 3 µg/mL (≈ 10.7 µM) | 3 µg/mL (≈ 10.7 µM) | 3 µg/mL (≈ 10.7 µM) | 3 µg/mL (≈ 10.7 µM) | 1 µg/mL (≈ 3.55 µM) | 3 µg/mL (≈ 10.7 µM) | 3 µg/mL (≈ 10.7 µM) |
| COc1cc(Cc2cnc(N)nc2N)cc2c(C)ccnc12 | 3 µg/mL (≈ 10.2 µM) | 3 µg/mL (≈ 10.2 µM) | – | 1 µg/mL (≈ 3.39 µM) | 1 µg/mL (≈ 3.39 µM) | 0.3 µg/mL (≈ 1.02 µM) | 1 µg/mL (≈ 3.39 µM) | 1 µg/mL (≈ 3.39 µM) | 1 µg/mL (≈ 3.39 µM) | 1 µg/mL (≈ 3.39 µM) | 1 µg/mL (≈ 3.39 µM) | 3 µg/mL (≈ 10.2 µM) | 1 µg/mL (≈ 3.39 µM) | 0.3 µg/mL (≈ 1.02 µM) | 1 µg/mL (≈ 3.39 µM) | 1 µg/mL (≈ 3.39 µM) | 0.3 µg/mL (≈ 1.02 µM) | 1 µg/mL (≈ 3.39 µM) | 1 µg/mL (≈ 3.39 µM) |
| Cc1ccnc2ccc(Cc3cnc(N)nc3N)c(N)c12 | > 100 µg/mL | 100 µg/mL (≈ 357 µM) | 15 µM | 100 µg/mL (≈ 357 µM) | 300 µg/mL (≈ 1070 µM) | 100 µg/mL (≈ 357 µM) | 30 µg/mL (≈ 107 µM) | > 100 µg/mL | 100 µg/mL (≈ 357 µM) | 100 µg/mL (≈ 357 µM) | > 10 µg/mL | 100 µg/mL (≈ 357 µM) | 30 µg/mL (≈ 107 µM) | 30 µg/mL (≈ 107 µM) | 10 µg/mL (≈ 35.7 µM) | 100 µg/mL (≈ 357 µM) | 100 µg/mL (≈ 357 µM) | 300 µg/mL (≈ 1070 µM) | 100 µg/mL (≈ 357 µM) |
| Nc1ncc(Cc2ccc3ncccc3c2)c(N)n1 | 10 µg/mL (≈ 39.8 µM) | 10 µg/mL (≈ 39.8 µM) | 18 µM | 3 µg/mL (≈ 11.9 µM) | 3 µg/mL (≈ 11.9 µM) | 0.3 µg/mL (≈ 1.19 µM) | 3 µg/mL (≈ 11.9 µM) | 10 µg/mL (≈ 39.8 µM) | 10 µg/mL (≈ 39.8 µM) | 10 µg/mL (≈ 39.8 µM) | 3 µg/mL (≈ 11.9 µM) | 10 µg/mL (≈ 39.8 µM) | 3 µg/mL (≈ 11.9 µM) | 30 µg/mL (≈ 119 µM) | 3 µg/mL (≈ 11.9 µM) | 3 µg/mL (≈ 11.9 µM) | 3 µg/mL (≈ 11.9 µM) | 10 µg/mL (≈ 39.8 µM) | 3 µg/mL (≈ 11.9 µM) |
| CCOC(=O)C1CNc2c(cc(Cc3cnc(N)nc3N)cc2OC)C1 (centres undefined) | > 100 µg/mL | 10 µg/mL (≈ 28 µM) | 44 µM | 30 µg/mL (≈ 83.9 µM) | 10 µg/mL (≈ 28 µM) | 30 µg/mL (≈ 83.9 µM) | > 30 µg/mL | > 100 µg/mL | 100 µg/mL (≈ 280 µM) | 10 µg/mL (≈ 28 µM) | > 10 µg/mL | 30 µg/mL (≈ 83.9 µM) | 3 µg/mL (≈ 8.39 µM) | 30 µg/mL (≈ 83.9 µM) | 30 µg/mL (≈ 83.9 µM) | 10 µg/mL (≈ 28 µM) | 30 µg/mL (≈ 83.9 µM) | 30 µg/mL (≈ 83.9 µM) | 100 µg/mL (≈ 280 µM) |
| COc1cc(Cc2cnc(N)nc2N)cc2c1NCCC2C (centres undefined) | 10 µg/mL (≈ 33.4 µM) | 10 µg/mL (≈ 33.4 µM) | – | 3 µg/mL (≈ 10 µM) | 3 µg/mL (≈ 10 µM) | 1 µg/mL (≈ 3.34 µM) | 3 µg/mL (≈ 10 µM) | 10 µg/mL (≈ 33.4 µM) | 10 µg/mL (≈ 33.4 µM) | 10 µg/mL (≈ 33.4 µM) | 3 µg/mL (≈ 10 µM) | 10 µg/mL (≈ 33.4 µM) | 1 µg/mL (≈ 3.34 µM) | 1 µg/mL (≈ 3.34 µM) | 1 µg/mL (≈ 3.34 µM) | 1 µg/mL (≈ 3.34 µM) | 1 µg/mL (≈ 3.34 µM) | 3 µg/mL (≈ 10 µM) | 3 µg/mL (≈ 10 µM) |
| Cc1ccnc2c(N)cc(Cc3cnc(N)nc3N)cc12 | 30 µg/mL (≈ 107 µM) | 10 µg/mL (≈ 35.7 µM) | 32 µM | 10 µg/mL (≈ 35.7 µM) | 10 µg/mL (≈ 35.7 µM) | 10 µg/mL (≈ 35.7 µM) | 1 µg/mL (≈ 3.57 µM) | 3 µg/mL (≈ 10.7 µM) | 10 µg/mL (≈ 35.7 µM) | 30 µg/mL (≈ 107 µM) | 30 µg/mL (≈ 107 µM) | 30 µg/mL (≈ 107 µM) | – | 3 µg/mL (≈ 10.7 µM) | 3 µg/mL (≈ 10.7 µM) | 10 µg/mL (≈ 35.7 µM) | 3 µg/mL (≈ 10.7 µM) | 10 µg/mL (≈ 35.7 µM) | 10 µg/mL (≈ 35.7 µM) |
| Nc1ncc(Cc2ccc3c(c2)CCCN3)c(N)n1 | 10 µg/mL (≈ 39.2 µM) | 10 µg/mL (≈ 39.2 µM) | 140 µM | 30 µg/mL (≈ 117 µM) | 10 µg/mL (≈ 39.2 µM) | 3 µg/mL (≈ 11.7 µM) | 10 µg/mL (≈ 39.2 µM) | 10 µg/mL (≈ 39.2 µM) | 10 µg/mL (≈ 39.2 µM) | 30 µg/mL (≈ 117 µM) | 10 µg/mL (≈ 39.2 µM) | 10 µg/mL (≈ 39.2 µM) | 10 µg/mL (≈ 39.2 µM) | 30 µg/mL (≈ 117 µM) | 10 µg/mL (≈ 39.2 µM) | 10 µg/mL (≈ 39.2 µM) | 10 µg/mL (≈ 39.2 µM) | 10 µg/mL (≈ 39.2 µM) | 10 µg/mL (≈ 39.2 µM) |
